According to patent publication US12115182B2, “Adenosine A2A agonists for the treatment of cytokine storm syndrome” (priority 2021, dated 2024):
Entries after “also recorded” stand apart in the source; their conditions may differ.

Key:
MHS cells = experiment: RAGE shedding in alveolar macrophages (MHS): Western blot of sRAGE, immunofluorescence of RAGE; format: cell-based, mouse; settings: GM6001 2 nM, regadenoson 100 nM; for PMA-induced shedding of cell membrane-anchored RAGE: PMA-treated MHS cells, ATL146e 10 nM
SARS CoV-2 [1] = experiment: Viral lung titers (plaque assay) and viral burden (IHC) in K18-hACE2 mice; format: in vivo, mouse
Experimental: Viral Lung titers: Titers were determined as described in Moreau et al. (MOREAU et al., Am. J. Trop. Med. Hyg., (2020), 103:1215-1219). Briefly, lungs were homogenized in serum-free DMEM. Titers were determined by infecting Vero C1008, Clone E6 (ATCC CRL-1586) with serial dilutions of the homogenate. After a two-hour incubation, the diluted homogenates were replaced with a liquid overlay of DMEM, 2.5% FBS containing 1.2% Avicel PH-101 (Sigma Aldrich, St. Louis, MO) and incubated at 37° C., 5% CO2. After three days, the overlay was removed, wells were fixed with 10% formaldehyde, and stained with 0.1% crystal violet to visualize plaques. Plaques were counted and PFUs were calculated according to the following equation: Average # of plaques/dilution factor×volume of diluted virus added to the well.
Histology: Tissues were fixed in 10% formalin. To visualize virus in the lungs, slides were stained with SARS-CoV2 specific anti-nucleoprotein antibody (Cat. No. 9099, ProSci, Poway, CA) as per manufacturer's instructions and then scanned at 20× magnification. The percentage of lung tissue infected with virus was calculated (ImageJ, version 1.53K).

[2] = system: SARS-CoV-2 strain B.1.351; format: in vivo, Golden Syrian hamster
SARS CoV-2 [3] = experiment: Apadenoson in K18-hACE2 mouse model of COVID-19: survival, weight, clinical scores; settings: for mice survived (combined survival data): Alzet pump 1.44 ug/kg/h, 1250 PFU
Experimental: K18-hACE2 mice, ranging in age from 17 to 30 weeks were divided into three groups. One group received saline (vehicle), another received apadenoson 18 hours before viral challenge (drug) and a third received apadenoson five hours post viral challenge (drug with delay). The mice were challenged intranasally with 1250 PFU SARS CoV-2. Mouse weight and clinical scores were recorded daily. Mice were euthanized when they met the criteria for euthanasia (see methods) or at the end of the experiment, which was day 12 post viral challenge.
Infection and treatment: Twenty-four hours prior to infecting Tg(K18-hACE2)2Prlmn (Jackson Laboratories) male mice with SARS CoV-2, primed 7-day Alzet® osmotic pumps (Durect, Cuperton, CA) containing saline or drug were implanted subcutaneously (MCCRAY et al., J. Virol., (2007), 81:813-821). In the drug with delay treatment group drug delivery was delayed by 24 hours by adding 2.5 cm long tubing to the pump. Apadenoson was delivered at a rate of 1.5 μg/kg/hr. Uninfected littermates received saline or drug with delay via osmotic pumps. Mice were challenged with 1250 plaque forming units (PFU) of Hong Kong/VM20001061/2020 (NR-52282, BEI Resources) via intranasal route under ketamine/xylazine anesthesia. Mice were examined twice daily for clinical symptoms and scored using the following criteria: weight loss (0-5, in 5% of initial weight loss increments), reduced activity (0-3), ruffled fur appearance and hunched posture (0-2), and an eye closure (0-2). Mice were euthanized when weight was <80% of initial weight or when they scored a maximum in two symptom categories. This experiment was repeated three times, with six animals per treatment group each time. […] Statistical differences in weight loss and clinical scores by treatment group were determined using linear mixed models accounting for day post-infection and the day the mouse died (Ime4 and ImerTest packages (BATES et al., J. Stat. Softw., (2015), 67; KUZNETSOVA et al., J. Stat. Softw., (2021), 82) in R (R Core Team 2021). For mice surviving to the end of the experiment (day 12 post-infection), day of death=15 was used. All mouse work was approved by the University's Institutional Animal Care and Use Committee and all procedures were performed in the University's certified animal Biosafety Level Three laboratory, which is fully accredited by the Association for the Assessment and Accreditation of Laboratory Animal Care, International (AAALAC).

[4] = system: BAL fluid cytokines and chemokines; experiment: BAL fluid cytokines/chemokines (31 plex Luminex) in SARS CoV-2-infected K18-hACE2 mice; format: in vivo, mouse
Experimental: Apadenoson treatment elicits cytokine and chemokine responses that are associated with a decrease in weight loss. To assess how apadenoson treatment may be delaying the onset of severe symptoms, mice were treated as before with either vehicle (saline) or apadenoson, delivered with a five-hour delay by osmotic pumps, then euthanized on day five post-infection.
BAL Cytokines: BAL fluid was collected with 700 μL of PBS and cells were removed via centrifugation. The BAL fluid was analyzed by a Luminex Magpix by the UVA Flow Cytometry Core facility using a Mouse 31 plex panel. Statistical changes in cytokine levels were analyzed using Welch's ANOVA followed by Dunnett's T3 multiple comparisons (Graphpad Prism 9.0). P values were adjusted for multiple testing using the Holm-Sidak method.

COVID-19 patients = settings: cited from earlier work
[5] = drug with delay treatment group
[6] = PI day 7, compared to control group
[7] = drug and drug with delay-treated groups

Which “PMA-induced shedding of cell membrane-anchored RAGE” value (“PMA-induced shedding” below) (MHS cells) does the source give for CCNC(=O)[C@H]1O[C@@H](n2cnc3c(N)nc(C#CC[C@H]4CC[C@H](C(=O)OC)CC4)nc32)[C@H](O)[C@@H]1O [Apadenoson] here?
The value was “partially inhibited”.

And the “PMA-induced shedding” value (MHS cells; listed as apadensoson)?
Its value is “suppressed the shedding of RAGE”.

What about the “viral titers in lungs of surviving mice” value (SARS CoV-2 [1]; both drug treatment groups) of the same compound?
The value was “below the limit of detection”.

What about the “average viral titer of lung homogenates” value (SARS CoV-2 [1]; [5]) of the same compound?
The value was “trended lower, but was not significant; also recorded: trended lower”.

And the “viral burden in lungs by IHC staining” value (SARS CoV-2 [1]; drug with delay treatment group, p=0.0012)?
Its value is “significantly lower”.

What about the “albumin leakage into BAL” value [2, 6] of the same compound?
Its value is “slight decrease; also recorded: did not significantly”.

What about the “plasma IL13” value [2, 6] of the same compound?
Its value is “slightly elevated; also recorded: did not significantly”.

And the “time course of the disease or viral titer detected in throat swabs” value ([2]; RT-qPCR)?
Its value is “did not significantly”.

And the “plasma IL4” value ([2]; compared to control)?
The value was “depressed; also recorded: did significantly”.

And the “decrease in weight gain” value ([2]; daily weights, vs control group)?
The value was “did not significantly”.

What about the “histologic distribution or severity of lung pathology” value ([2]; day 7) of the same compound?
The value was “did not significantly”.

What about the “plasma Transforming Growth Factor beta (TGFb)” value ([2]; day 7, compared to control) of the same compound?
Its value is “decreased; also recorded: did significantly”.

What about the “spread of virus to olfactory bulb (brain)” value ([2]; day 7, compared to control) of the same compound?
Its value is “decreased; also recorded: did significantly”.

And the “respiratory physiology parameters (EF50, Rpef, Penh)” value ([2]; whole body plethysmography, PI day 7)?
The value was “did not significantly”.

What about the “clinical scores compared to vehicle” value (SARS CoV-2 [3]; [7]) of the same compound?
The value was “statistically significantly lower”.

What about the “weight loss compared to vehicle” value (SARS CoV-2 [3]; [7]) of the same compound?
The value was “less weight loss”.

What about the “weight loss and clinical scores on day five post-infection” value (SARS CoV-2 [3]; drug with delay vs vehicle) of the same compound?
The value was “not statistically different between groups”.

What about the “mice survived (combined survival data)” value (SARS CoV-2 [3]; drug with delay) of the same compound?
Its value is 5/12.

What about the “survival curve compared to vehicle” value (SARS CoV-2 [3]; drug with delay-treated group, p=0.0002) of the same compound?
Its value is “significantly different than vehicle”.

And the “mice survived (combined survival data)” value (SARS CoV-2 [3]; drug with no delay)?
Its value is 4/12.

And the “survival curve compared to vehicle” value (SARS CoV-2 [3]; drug-treated group, p=0.066)?
Its value is “did not differ significantly”.

What about the “cytokines/chemokines not different between uninfected, vehicle-infected control and drug with delay-infected mice” value ([4]; BAL fluid, day five post-infection) of the same compound?
Its value is 18/31.

What about the “levels of eight cytokines and chemokines (MIG, G-CSF, Eotaxin, MIP1b, VEGF, INF-g, TNF-a, KC) in BAL fluid” value [4, 5] of the same compound?
The value was “not significantly different from uninfected mice”.

And the “IP-10 level in BAL fluid” value ([4]; drug with delay-infected group compared to vehicle, p=0.0223)?
The value was “statistically higher”.

What about the “MCP-1 level in BAL fluid” value ([4]; drug with delay-infected group compared to vehicle, p=0.0351) of the same compound?
Its value is “statistically higher”.

Which “sRAGE shedding on LPS-treated MHS cells” value (MHS cells; LPS 75 ng/ml, apadenoson 10 nM) does the source give for CNC(=O)[C@H](Cc1c[nH]c2ccccc12)NC(=O)[C@@H](CC(=O)NO)CC(C)C [GM6001] here?
Its value is “inhibited sRAGE shedding”.

What about the “levels of sRAGE in the conditional media (Western blot)” value (MHS cells; PMA (20 nM)-treated MHS cells, 24 hours) of the same compound?
Its value is “decreased”.

What about the “PMA-induced shedding” value (MHS cells) of the same compound?
The value was “suppressed the shedding of RAGE; also recorded: partially blocked”.

For Nc1ncnc2c1ncn2[C@@H]1O[C@H](CO)[C@@H](O)[C@H]1O [adenosine], which “increase in PaO2/FiO2-ratio” value (COVID-19 patients; aerosolized, twice daily, in 13 out of 14 patients) is on record?
Its value is over 30%.

And the death rate (COVID-19 patients; inhaled adenosine group, 1/14, control group 11/52 (21%))?
Its death rate is 7%.
